# Source: patent publication US8329640B2, “Peptides with improved properties having the biological activity of vasoactive intestinal peptide (VIP) and their use for the treatment of lung diseases” (priority 2007, dated 2012)
# Values joined by “and” are separate entries in the source; they are usually repeats but may differ in a detail not shown here. Identical values can stand only once. No end group written: not given here.
# Legend:
# PASMC = assay: cAMP measurement in PASMC (cyclic AMP ELISA); assay type: cell-based; details: for cAMP +/− SD: 20 min; for cyclic AMP content of PASMC, effect in words: analogues compared with VIP
# Protocol: Effects of VIP and the peptides according to the invention are mediated by specific G-protein coupled receptors. Three distinct receptor subtypes, with differing affinity for the peptides, have been cloned and characterized as receptors 1 and 2 (VPAC1 and VPAC2) and pituitary adenylate cyclase activating polypeptide receptor (PAC1). The secondary messenger is cyclic adenosine mono phosphate (CAMP). […] Cells derived from pulmonary artery (PASMC) were seeded in 24 well plates and cultured in DMEM containing 10% fetal calf serum (Gibco lifesciences, Karlsruhe), Penicillin (Gibco lifesciences, Karlsruhe, 100 U/ml) Streptomycin (Gibco lifesciences, Karlsruhe, 100 U/ml) to confluency. […] The incubation is stopped by rinsing cells with PBS and immediate lysis of cells with HCl (0.1N) containing 3-isobutyl 1-methyl xanthine (500 μM) to block further hydrolysis of cAMP. Lysed cells were centrifuged and the supernatants assayed for cAMP using an commercially available cyclic AMP ELISA (Assay Designs, Inc., Michigan, distribution by Bio Trend, Köln).
# COPD patients = assay: Phase II double-blind, randomized, placebo-controlled clinical trial of inhaled VIP in COPD; details: VIP (n = 15)
# Protocol: Chronic obstructive pulmonary disease (COPD) is characterised by progressive airflow limitation associated with chronic inflammation. […] The efficacy and safety of VIP in patients was assessed with moderate to severe COPD.
# The present double-blind, randomized, placebo-controlled study was undertaken in an outpatient setting. COPD patients (n=34) were randomly assigned VIP 50 μg (n=17), or placebo (n=17), given per inhalation, 4 times daily for 12 weeks. VIP serum concentration was measured in all patients. Primary outcomes were health-related quality of life and exercise capacity. Secondary outcomes included the lung function parameters and COPD exacerbations.
# [1] = system: monocytes after LPS stimulation; assay: Nitrite (NO) production by monocytes/macrophages after LPS stimulation; assay type: cell-based, human; details: for Nitrit +/− SD: LPS 100 nM + peptide 100 nM, 24 hours, no LPS 48, LPS alone 75; for anti-inflammatory response (NO production) on simultaneous incubation with LPS: after 24 hours, analogues compared with VIP
# Protocol: Peripheral blood mononuclear cells were isolated from whole venous blood from 12 stable COPD patients and 12 healthy probands by Ficoll density gradient centrifugation. Monocytes were differentiated in RPMI-1640 medium supplemented with 5% FCS, antibiotics and 10^−8 M 1,25-dihydroxycholecalciferol (Sigma) in a humidified atmosphere with 5% CO2 at 37° C.
# For infection simulation, macrophage stimulation and experimental in vivo treatment the differentiated cells were incubated either with LPS, with LPS and SEQ ID No.:1 (VIP) or SEQ ID No.:2 (A-15) or SEQ ID No.:3 (A-18), or with medium alone for control.
# To test the hypothesis whether or not the macrophages utilize the VIP-signaling pathway to modulate and limit the immune response, the inflammation reaction in vitro was stimulated and NO (produced by iNOS) production by the cells was measured under inflammation and under in vitro therapy with VIP and the peptides according to the invention (SEQ ID Nos 2 and 3). NOS increased dramatically by LPS after 24 hours. […] This anti-inflammatory response was better by both VIP-analogues according to SEQ ID Nos. 2 and 3.
Compound,"cyclic AMP content of PASMC, effect in words (PASMC)",cAMP +/− SD (PASMC; peptide 1 nM + IBMX 500 μM),"cAMP +/− SD (PASMC; peptide 1 nM, without IBMX)",cAMP +/− SD (PASMC; peptide 10 nM + IBMX 500 μM),"cAMP +/− SD (PASMC; peptide 10 nM, without IBMX)",cAMP +/− SD (PASMC; peptide 100 nM + IBMX 500 μM),"cAMP +/− SD (PASMC; peptide 100 nM, without IBMX)",Nitrit +/− SD [1],anti-inflammatory response (NO production) on simultaneous incubation with LPS [1],also measured
"C=C[C@@]1(C)CC(=O)[C@]2(O)[C@@]3(C)[C@@H](O)CCC(C)(C)[C@@H]3[C@H](O)[C@H](OC(C)=O)[C@@]2(C)O1 [Forskolin, reference compound]",–,–,–,–,–,–,–,–,–,cAMP +/− SD (PASMC; Forskolin 10 μM + IBMX 500 μM): 41.10 pmol/mL and 47.81 pmol/mL and 58.00 pmol/mL
"CC(C)Cn1c(=O)n(C)c(=O)c2[nH]cnc21 [IBMX, 3-isobutyl 1-methyl xanthine, reference compound]",–,–,–,–,–,–,–,–,–,cAMP +/− SD (PASMC; IBMX 500 μM alone): 16.37 pmol/mL and 17.16 pmol/mL and 15.91 pmol/mL
CC[C@H](C)[C@H](NC(=O)[C@H](CO)NC(=O)[C@H](CC(N)=O)NC(=O)[C@H](CC(C)C)NC(=O)[C@H](Cc1ccc(O)cc1)NC(=O)[C@H](CCCCN)NC(=O)[C@H](CCCCN)NC(=O)[C@@H](NC(=O)[C@H](C)NC(=O)[C@H](CCSC)NC(=O)[C@H](CCC(N)=O)NC(=O)[C@H](CCCCN)NC(=O)[C@H](CCCN=C(N)N)NC(=O)[C@H](CC(C)C)NC(=O)[C@H](CCCN=C(N)N)NC(=O)[C@@H](NC(=O)[C@H](Cc1ccc(O)cc1)NC(=O)[C@H](CC(N)=O)NC(=O)[C@H](CC(=O)O)NC(=O)[C@@H](NC(=O)[C@H](Cc1ccccc1)NC(=O)[C@@H](NC(=O)[C@H](C)NC(=O)[C@H](CC(=O)O)NC(=O)[C@H](CO)NC(=O)[C@@H](N)Cc1c[nH]cn1)C(C)C)[C@@H](C)O)[C@@H](C)O)C(C)C)C(=O)N[C@@H](CC(C)C)C(=O)N[C@@H](CC(N)=O)C(N)=O [VIP],–,–,–,–,–,–,–,–,–,"Adverse events: COPD exacerbation, number (COPD patients): 8; Adverse events: COPD exacerbation, percent (COPD patients): (53.3%); Adverse events: Diarrhoea NOS, number (COPD patients): 0; Adverse events: Diarrhoea NOS, percent (COPD patients): (0%); Adverse events: Nasopharyngitis, number (COPD patients): 0; Adverse events: Nasopharyngitis, percent (COPD patients): (0%); Adverse events: Nausea, number (COPD patients): 0; Adverse events: Nausea, percent (COPD patients): (0%); Adverse events: Upper respiratory tract infection, number (COPD patients): 1; Adverse events: Upper respiratory tract infection, percent (COPD patients): (6.7%)"
His (Ac)-Ser-Asp-Ala-Val-Phe-Thr-Asp-Asn-Tyr-Thr-Arg-Leu-Arg-Lys-Gln-Met (O)-Ala-Val-Lys-Lys-Tyr-Leu-Asn-Ser-Ile-Leu-Asn [Pep - 15],Higher increase,26.45 pmol/mL,13.30 pmol/mL,27.00 pmol/mL,16.30 pmol/mL,36.67 pmol/mL,23.30 pmol/mL,16 µmol,better,–
His (Ac)-Ser-Asp-Ala-Val-Phe-Thr-Asp-Asn-Tyr-Thr-Arg-Leu-Arg-Lys-Gln-Met-Ala-Val-Lys-Lys-Tyr-Leu-Asn-Ser-Val-Leu-Asn ({Ac-H2N}-SDAVFTDNYTRLRKQMAVKKYLNSVLN; not fully specified (residue 16); printed as His (Ac)-Ser-Asp-Ala-Val-Phe-Thr-Asp-Asn-Tyr-Thr-Arg-Leu-Arg-Lys-Gln-Met-Ala-Val-Lys-Lys-Tyr-Leu-Asn-Ser-Val-Leu-Asn) [Pep - 18],Higher increase,36.66 pmol/mL,14.83 pmol/mL,37.00 pmol/mL,19.45 pmol/mL,46.42 pmol/mL,28.43 pmol/mL,19 µmol,better,–
